From patent US9447073B2, “Fungicidal compositions” (Viamet Pharmaceuticals, Inc., priority 2013, dated 2016)
Where two headings read alike, the source gives them in different places.

Assays:
[1] = test system: Mycosphaerella graminicola (Anamorph: Septoria tritici; Bayer Code SEPTTR); assay: Fungicidal activity: Leaf Blotch of Wheat (SEPTTR), wheat seedlings in greenhouse; assay type: in vivo; set-up: key to Disease Control SEPTTR 1DP: A: 80-100; B: More than 0—Less than 80; C: Not Tested; D: No activity noticed in this bioassay; details: wheat (variety Yuma); for pest or weed control at 50 ppm: Zymoseptoria tritici
Procedure: (§1) Technical grades of materials were dissolved in acetone, which were then mixed with nine volumes of water containing 110 ppm Triton X-100. The fungicide solutions were applied onto wheat seedlings using an automated booth sprayer to run-off. All sprayed plants were allowed to air dry prior to further handling. Wheat plants (variety Yuma) were grown from seed in a greenhouse in 50% mineral soil/50% soil-less Metro mix until the first leaf was fully emerged, with 7-10 seedlings per pot. These plants were inoculated with an aqueous spore suspension of Septoria tritici either prior to or after fungicide treatments. After inoculation the plants were kept in 100% relative humidity (one day in a dark dew chamber followed by two to three days in a lighted dew chamber at 20° C.) to permit spores to germinate and infect the leaf. The plants were then transferred to a greenhouse set at 20° C. for disease to develop. When disease symptoms were fully expressed on the 1st leaves of untreated plants, infection levels were assessed on a scale of 0 to 100 percent disease severity. Percent disease control was calculated using the ratio of disease severity on treated plants relative to untreated plants.

[2] = test system: Puccinia triticina (Synonym: Puccinia recondita f sp. tritici; Bayer Code PUCCRT); assay: Fungicidal activity: Wheat Brown Rust (PUCCRT), wheat seedlings in greenhouse; assay type: in vivo; details: wheat (variety Yuma)
Procedure: Technical grades of materials were dissolved in acetone, which were then mixed with nine volumes of water containing 110 ppm Triton X-100. The fungicide solutions were applied onto wheat seedlings using an automated booth sprayer to run-off. All sprayed plants were allowed to air dry prior to further handling.
as §1, with “Wheat” for “Technical grades of materials were dissolved in acetone, which were then mixed with nine volumes of water containing 110 ppm Triton X-100. The fungicide solutions were applied onto wheat seedlings using an automated booth sprayer to run-off. All sprayed plants were allowed to air dry prior to further handling. Wheat”
Wheat plants (variety Yuma) were grown from seed in a greenhouse in 50% mineral soil/50% soil-less Metro mix until the first leaf was fully emerged, with 7-10 seedlings per pot. These plants were inoculated with an aqueous spore suspension of Puccinia triticina either prior to or after fungicide treatments. After inoculation the plants were kept in a dark dew room at 22° C. with 100% relative humidity overnight to permit spores to germinate and infect the leaf. The plants were then transferred to a greenhouse set at 24° C. for disease to develop. Fungicide formulation, application and disease assessment followed the procedures as described in Example 18.

[3] = 1DP, read-out: Disease Control SEPTTR 1DP
[4] = 3DC, read-out: Disease Control SEPTTR 3DC
[5] = 1DC, read-out: Disease Control PUCCRT 1DC
[6] = 1DP, read-out: Disease Control PUCCRT 1DP

Structure (SMILES): NC(=S)c1ccc(Oc2ccc(C(F)(F)C(O)(Cn3nn[nH]c3=S)c3ccc(F)cc3F)nc2)cc1 (centres unmarked) [Compound F1, 4-((6-(2-(2,4-difluorophenyl)-1,1-difluoro-2-hydroxy-3-(5-thioxo-4,5-dihydro-1H-tetrazol-)propyl)pyridin-3-yl)oxy)benzothioamide]
- pest or weed control at 50 ppm [1, 3]: 80 to 100%
- pest or weed control at 50 ppm [1, 4]: 80 to 100%
- pest or weed control at 50 ppm [2, 5]: 80 to 100%
- pest or weed control at 50 ppm [2, 6]: 80 to 100%
- melting point: 214 to 218 °C

Structure (SMILES): N#Cc1ccc(Oc2ccc(C(F)(F)C(O)(Cn3nn[nH]c3=S)c3ccc(F)cc3F)nc2)cc1 (centres unmarked) [Compound F2, 4-((6-(2-(2,4-difluorophenyl)-1,1-difluoro-2-hydroxy-3-(5-thioxo-4,5-dihydro-1H-tetrazol-)propyl)pyridin-3-yl)oxy)benzonitrile]
- pest or weed control at 50 ppm [1, 3]: 80 to 100%
- pest or weed control at 50 ppm [1, 4]: 80 to 100%
- pest or weed control at 50 ppm [2, 6]: 80 to 100%

Structure (SMILES): N#Cc1ccc(Oc2ccc(C(F)(F)C(O)(Cn3nn[nH]c3=S)c3ccc(F)cc3F)nc2)nc1 (centres unmarked) [Compound F3]
- pest or weed control at 50 ppm [1, 3]: 80 to 100%
- pest or weed control at 50 ppm [1, 4]: 0 to 80%
- pest or weed control at 50 ppm [2, 5]: 80 to 100%
- pest or weed control at 50 ppm [2, 6]: 80 to 100%

Structure (SMILES): OC(Cn1nn[nH]c1=S)(c1ccc(F)cc1F)C(F)(F)c1ccc(Oc2ccc(Cl)cn2)cn1 (centres unmarked) [Compound F4]
- pest or weed control at 50 ppm [1, 3]: 80 to 100%
- pest or weed control at 50 ppm [1, 4]: 80 to 100%
- pest or weed control at 50 ppm [2, 5]: 80 to 100%
- pest or weed control at 50 ppm [2, 6]: 80 to 100%

Structure (SMILES): OC(Cn1nn[nH]c1=S)(c1ccc(F)cc1F)C(F)(F)c1ccc(OCC(F)(F)F)cn1 (centres unmarked) [Compound F5]
- pest or weed control at 50 ppm [1, 3]: 80 to 100%
- pest or weed control at 50 ppm [1, 4]: 80 to 100%
- pest or weed control at 50 ppm [2, 5]: 80 to 100%
- pest or weed control at 50 ppm [2, 6]: 80 to 100%

Structure (SMILES): CSc1nnnn1CC(O)(c1ccc(F)cc1F)C(F)(F)c1ccc(Br)cn1 (centres unmarked) [Compound F6, 1-(5-bromopyridin-2-yl)-2-(2,4-difluorophenyl)-1,1-difluoro-3-(5-(methylthio)-1H-tetrazol-1-yl)propan-2-ol]
- Disease Control SEPTTR 1DP ([1]; 50 ppm, 1DP): D
- pest or weed control at 50 ppm [1, 4]: 0 to 80%
- pest or weed control at 50 ppm [2, 5]: 80 to 100%
- pest or weed control at 50 ppm [2, 6]: 0 to 80%

Structure (SMILES): CCSc1nnnn1CC(O)(c1ccc(F)cc1F)C(F)(F)c1ccc(Oc2ccc(C#N)cc2)cn1 (centres unmarked) [Compound F7]
- pest or weed control at 50 ppm [1, 3]: 0 to 80%
- pest or weed control at 50 ppm [1, 4]: 80 to 100%
- pest or weed control at 50 ppm [2, 5]: 80 to 100%
- pest or weed control at 50 ppm [2, 6]: 80 to 100%

Structure (SMILES): OC(Cn1nn[nH]c1=S)(c1ccc(F)cc1F)C(F)(F)c1ccc(Oc2ccc(C(F)(F)F)cn2)cn1 (centres unmarked) [Compound F8]
- pest or weed control at 50 ppm [1, 3]: 80 to 100%
- pest or weed control at 50 ppm [1, 4]: 80 to 100%
- pest or weed control at 50 ppm [2, 5]: 80 to 100%
- pest or weed control at 50 ppm [2, 6]: 80 to 100%

Structure (SMILES): OC(Cn1nn[nH]c1=S)(c1ccc(F)cc1F)C(F)(F)c1ccc(COC(F)F)cn1 (centres unmarked) [Compound F9]
- pest or weed control at 50 ppm [1, 3]: 80 to 100%
- pest or weed control at 50 ppm [1, 4]: 80 to 100%
- pest or weed control at 50 ppm [2, 5]: 80 to 100%
- pest or weed control at 50 ppm [2, 6]: 80 to 100%

Structure (SMILES): OC(Cn1nn[nH]c1=S)(c1ccc(F)cc1F)C(F)(F)c1ccc(OC2CC2(F)F)cn1 (centres unmarked) [Compound F10]
- pest or weed control at 50 ppm [1, 3]: 80 to 100%
- pest or weed control at 50 ppm [1, 4]: 80 to 100%
- pest or weed control at 50 ppm [2, 5]: 80 to 100%
- pest or weed control at 50 ppm [2, 6]: 80 to 100%
- melting point: 53 to 57 °C

Structure (SMILES): CSc1nnnn1CC(O)(c1ccc(F)cc1F)C(F)(F)c1ccc(Oc2ccc(C#N)cc2)cn1 (centres unmarked) [Compound F11, 4-((6-(2-(2,4-difluorophenyl)-1,1-difluoro-2-hydroxy-3-(5-(methylthio)-1H-tetrazol-1-yl)propyl)pyridin-3-yl)oxy)benzonitrile]
- pest or weed control at 50 ppm [1, 3]: 80 to 100%
- pest or weed control at 50 ppm [1, 4]: 80 to 100%
- pest or weed control at 50 ppm [2, 6]: 80 to 100%

Structure (SMILES): N#Cc1ccc(Oc2ccc(C(F)(F)C(O)(Cn3nnnc3SCc3ccccc3)c3ccc(F)cc3F)nc2)cc1 (centres unmarked) [Compound F12]
- pest or weed control at 50 ppm [1, 3]: 0 to 80%
- pest or weed control at 50 ppm [1, 4]: 80 to 100%
- pest or weed control at 50 ppm [2, 6]: 80 to 100%

Structure (SMILES): N#Cc1ccc(Oc2ccc(C(F)(F)C(O)(Cn3nnnc3SCC3CC3)c3ccc(F)cc3F)nc2)cc1 (centres unmarked) [Compound F13]
- pest or weed control at 50 ppm [1, 3]: 80 to 100%
- pest or weed control at 50 ppm [1, 4]: 80 to 100%
- pest or weed control at 50 ppm [2, 6]: 80 to 100%
